Like-named read-outs stand apart in the source and are kept apart here.
Tests used:
Type in all cases: biochemical
MKK1 = MKK1 (Homo sapiens, UniProt Q02750); test: Kinase screen: MKK1 assay
Procedure: (§1) Generally, the same procedure was used for all assays. Since the total assay volume was 25.5 microliters, 0.5 microliters of inhibitors at 51× assay concentration were added to the plates before any other addition.
(§2) The basic procedure was to add 0.5 microliters inhibitor/control in DMSO to plate. Fifteen microliters of enzyme/substrate/buffer mix were added and incubated for 5 min. Ten microliters MgATP at the relevant concentration were added and incubated for 30 min. The assay was stopped by adding 5 microliters of 3% orthophosphoric acid. The assay was transferred to a p81 filter plate and read in a scintillation counter of 30 sec/well. Note that this assay procedure was not followed for MKK1, which instead involved a two-step assay, and PKC alpha, which required the addition of lipid vesicles.
After incubating at room temperature for 30 min, 5 μl from the first reaction was pipetted into 20 μl of the second reaction mix containing (final concentration) 25 mM Tris pH 7.5, 0.1 mM EGTA, 0.1 mM Na3VO4, 0.66 mg/ml myelin basic protein (MBP), 10 mM magnesium acetate and 0.05 mM [33P-g-ATP] (500-1000 cpm/pmole) and incubated for 30 min at room temperature. Assays were stopped by addition of 5 μl of 0.5 M (3%) orthophosphoric acid and then harvested onto P81 Unifilter plates with a wash buffer of 50 mM orthophosphoric acid.

PKCα = PKCα (Homo sapiens, UniProt P17252); test: Kinase screen: PKCa assay
Procedure: as §1, §2
PKCa assay: PKCa (5-20 mU diluted in 20 mM Hepes pH 7.4, 0.03% Triton X-100) was assayed against Histone H1 in the presence of PtdSerine and DAG (0.1 mg/ml. and 10 μg/ml) and 0.1 mM CaCl2. The assay was carried out in a final volume of 25.5 μl containing 20 mM Hepes pH 7.4, 0.03% Triton X-100, 0.1 mg/ml Histone H1, 10 mM magnesium acetate and 0.02 mM[33P-g-ATP] (50-1000 cpm/pmole) and incubated for 30 min at room temperature. Assays were stopped by addition of 5 μl of 0.5 M (3%) orthophosphoric acid and then harvested onto P81 Unifilter plates with a wash buffer of 50 mM orthophosphoric acid.
PtdSer/DAG preparation: PtdSer stock was 10 mg/ml in MeOH/Chloroform (1:2). The required amount was dried down and re-suspended in an appropriate volume of 10 mM Hepes pH 7.4, vortexed, and briefly sonicated (2×10^−15 seconds at 10-15 seconds apart). DAG stock was 10 mg/ml in MeOH/chloroform (1:2). The required amount was dried down and sonicated PtdSer solution was added, vortexed and sonicated.

PRAK = biological target: T1, PRAK (Homo sapiens, UniProt Q8IW41); test: Kinase screen: PRAK assay
T1 sequence (Q8IW41 1-473): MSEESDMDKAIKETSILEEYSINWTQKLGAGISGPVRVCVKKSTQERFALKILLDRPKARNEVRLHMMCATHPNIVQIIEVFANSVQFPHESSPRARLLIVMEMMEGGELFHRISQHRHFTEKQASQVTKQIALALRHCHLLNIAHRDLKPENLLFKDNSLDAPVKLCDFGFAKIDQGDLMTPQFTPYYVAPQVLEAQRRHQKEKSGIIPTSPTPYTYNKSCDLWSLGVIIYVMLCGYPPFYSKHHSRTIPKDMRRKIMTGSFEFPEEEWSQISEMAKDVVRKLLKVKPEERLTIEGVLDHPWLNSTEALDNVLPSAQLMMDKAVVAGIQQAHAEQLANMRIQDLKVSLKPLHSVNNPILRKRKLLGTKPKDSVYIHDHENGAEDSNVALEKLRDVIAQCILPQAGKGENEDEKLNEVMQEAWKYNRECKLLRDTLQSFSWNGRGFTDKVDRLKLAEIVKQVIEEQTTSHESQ
Procedure: as §1, §2
(§3) (50-1000 cpm/pmole) and incubated for 30 min at room temperature. Assays were stopped by addition of 5 μl of 0.5 M (3%) orthophosphoric acid and then harvested onto P81 Unifilter plates with a wash buffer of 50 mM orthophosphoric acid.

CHK2 = CHK2 (Homo sapiens, UniProt O96017); test: Kinase screen: CHK2 assay
Procedure: as §1, §2
CHK2 assay: CHK2 (5-20 mU diluted in 20 mM MOPS pH 7.5, 1 mM EDTA, 0.1% b-mercaptoethanol, 0.01% Brij-35, 5% glycerol, 1 mg/ml BSA) was assayed against CHKtide substrate peptide ([…]) (SEQ ID NO: 12) in a final volume of 25.5 μl containing 8 mM MOPS pH 7.0, 0.2 mM EDTA, 200 μM CHKtide, 10 mM magnesium acetate and 0.02 mM [33P-g-ATP] (50-1000 cpm/pmole) and incubated for 30 min at room temperature Assays were stopped by addition of 5 μl of 0.5 M (3%) orthophosphoric acid and then harvested onto P81 Unifilter plates with a wash buffer of 50 mM orthophosphoric acid.

DYRK1A = DYRK1A (Homo sapiens, UniProt Q13627); test: Kinase screen: DYRK 1A assay
Procedure: as §1, §2, §3

HIPK2 = HIPK2 (Homo sapiens, UniProt Q9H2X6); test: Kinase screen: HIPK2 assay
Procedure: as §1, §2
HIPK2 assay: 5-20 mU of HIPK2 (diluted in 50 mM Tris (pH 7.5), 0.1 mM EGTA, 1 mg/ml BSA, 0.1%, b-Mercaptoethanol) was assayed against MBP in a final volume of 25.5 μl containing 50 mM Tris (pH 7.5), 0.1 mM EGTA, 0.1%, b-Mercaptoethanol, 0.33 mg/ml MBP, 10 mM magnesium acetate and 0.005 mM [33P-g-ATP] (500-1000 cpm/pmole) and incubated for 30 mins at room temperature. Assays were stopped by addition of 5 μl of 0.5M (3%) orthophosphoric acid. Assays were harvested onto P81 Unifilter plates using a wash buffer of 50 mM orthophosphoric acid.

[1] = 10 micromolar compound, read-out: mean activity remaining (as a percentage of the original activity), MKK1
[2] = 10 micromolar compound, read-out: mean activity remaining (as a percentage of the original activity), PKCa
[3] = 10 micromolar compound, read-out: mean activity remaining (as a percentage of the original activity), PRAK
[4] = 10 micromolar compound, read-out: mean activity remaining (as a percentage of the original activity), CHK 2
[5] = 10 micromolar compound, read-out: mean activity remaining (as a percentage of the original activity), DYRK 1A
[6] = 10 micromolar compound, read-out: mean activity remaining (as a percentage of the original activity), HIPK2

Chain of CHK2 (O96017 whole entry, species assumed): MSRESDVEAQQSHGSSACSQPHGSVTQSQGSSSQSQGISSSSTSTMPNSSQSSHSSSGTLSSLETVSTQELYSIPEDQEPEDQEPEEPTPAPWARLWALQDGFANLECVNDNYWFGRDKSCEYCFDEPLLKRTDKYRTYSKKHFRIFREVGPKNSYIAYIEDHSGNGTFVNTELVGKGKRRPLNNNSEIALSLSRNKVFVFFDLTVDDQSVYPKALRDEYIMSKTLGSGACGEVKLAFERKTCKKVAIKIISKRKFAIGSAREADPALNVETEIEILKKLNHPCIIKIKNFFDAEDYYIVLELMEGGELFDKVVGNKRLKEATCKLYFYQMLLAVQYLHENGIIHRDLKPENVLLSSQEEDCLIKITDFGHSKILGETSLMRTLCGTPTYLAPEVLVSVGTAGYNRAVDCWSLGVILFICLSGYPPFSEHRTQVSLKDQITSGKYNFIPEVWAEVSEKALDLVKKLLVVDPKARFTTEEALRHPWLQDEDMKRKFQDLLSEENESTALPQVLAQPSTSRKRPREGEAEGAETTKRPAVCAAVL
Chain of MKK1 (Q02750 whole entry, species assumed): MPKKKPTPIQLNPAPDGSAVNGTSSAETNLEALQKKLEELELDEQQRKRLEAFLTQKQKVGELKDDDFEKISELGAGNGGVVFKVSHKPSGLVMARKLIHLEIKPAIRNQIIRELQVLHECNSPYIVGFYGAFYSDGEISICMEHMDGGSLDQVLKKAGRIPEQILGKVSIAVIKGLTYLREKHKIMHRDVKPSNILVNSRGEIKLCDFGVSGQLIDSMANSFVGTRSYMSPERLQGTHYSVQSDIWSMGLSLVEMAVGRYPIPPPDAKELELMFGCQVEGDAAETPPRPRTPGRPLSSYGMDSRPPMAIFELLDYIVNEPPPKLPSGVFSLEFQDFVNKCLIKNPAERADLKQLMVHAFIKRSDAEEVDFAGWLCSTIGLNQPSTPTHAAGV
Chain of HIPK2 (Q9H2X6 whole entry, species assumed): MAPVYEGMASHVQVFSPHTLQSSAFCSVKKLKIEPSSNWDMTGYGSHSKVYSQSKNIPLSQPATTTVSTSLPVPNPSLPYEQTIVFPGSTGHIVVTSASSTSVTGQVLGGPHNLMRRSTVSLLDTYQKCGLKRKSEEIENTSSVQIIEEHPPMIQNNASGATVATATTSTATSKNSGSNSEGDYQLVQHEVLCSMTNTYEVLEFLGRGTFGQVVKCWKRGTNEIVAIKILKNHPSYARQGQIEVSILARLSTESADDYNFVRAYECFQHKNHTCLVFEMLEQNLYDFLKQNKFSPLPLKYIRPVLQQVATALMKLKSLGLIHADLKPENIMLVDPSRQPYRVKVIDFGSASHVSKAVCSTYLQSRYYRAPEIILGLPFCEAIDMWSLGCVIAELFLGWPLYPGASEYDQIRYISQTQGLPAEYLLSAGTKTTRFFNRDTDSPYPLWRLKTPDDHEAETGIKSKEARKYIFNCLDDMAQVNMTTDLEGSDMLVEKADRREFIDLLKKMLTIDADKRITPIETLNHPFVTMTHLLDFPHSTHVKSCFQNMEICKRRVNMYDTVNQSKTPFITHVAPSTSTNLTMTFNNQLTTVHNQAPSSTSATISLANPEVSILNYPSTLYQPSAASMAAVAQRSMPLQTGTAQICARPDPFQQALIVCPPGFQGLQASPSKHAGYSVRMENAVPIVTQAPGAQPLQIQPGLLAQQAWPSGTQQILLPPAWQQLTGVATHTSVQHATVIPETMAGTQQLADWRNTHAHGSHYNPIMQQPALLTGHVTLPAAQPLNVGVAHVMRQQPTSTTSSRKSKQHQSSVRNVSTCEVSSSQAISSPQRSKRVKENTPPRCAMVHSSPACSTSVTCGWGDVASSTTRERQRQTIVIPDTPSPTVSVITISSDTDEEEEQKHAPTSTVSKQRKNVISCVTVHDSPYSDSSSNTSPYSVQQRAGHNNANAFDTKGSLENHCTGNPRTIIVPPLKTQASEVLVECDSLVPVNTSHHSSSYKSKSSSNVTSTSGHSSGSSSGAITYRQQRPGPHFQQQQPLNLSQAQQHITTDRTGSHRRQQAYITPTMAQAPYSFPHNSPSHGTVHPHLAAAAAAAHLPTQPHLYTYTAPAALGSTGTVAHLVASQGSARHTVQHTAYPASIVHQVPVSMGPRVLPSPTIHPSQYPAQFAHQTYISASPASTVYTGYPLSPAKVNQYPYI

SMILES	remaining activity at 10 µM (MKK1; [1])	remaining activity at 10 µM (PKCα; [2])	remaining activity at 10 µM (PRAK; [3])	remaining activity at 10 µM (CHK2; [4])	remaining activity at 10 µM (DYRK1A; [5])	remaining activity at 10 µM (HIPK2; [6])	other results
CC(C)c1cnn2c(NCc3ccccc3F)cc(NCCCCCN)nc12 [ICEC-0232]	–	–	–	–	–	–	mean activity remaining (as a percentage of the original activity), MKK1 (MKK1; 10 micromolar compound): 83%; mean activity remaining (as a percentage of the original activity), PKCa (PKCα; 10 micromolar compound): 80%; mean activity remaining (as a percentage of the original activity), PRAK (PRAK; 10 micromolar compound): 97%; mean activity remaining (as a percentage of the original activity), CHK 2 (CHK2; 10 micromolar compound): 15%; mean activity remaining (as a percentage of the original activity), DYRK 1A (DYRK1A; 10 micromolar compound): 11%; mean activity remaining (as a percentage of the original activity), HIPK2 (HIPK2; 10 micromolar compound): 49%
CC(C)c1cnn2c(NCc3ccccc3)cc(NCCCCCCCN)nc12 [BS-181]	–	–	–	–	–	–	remaining activity at 10 µM (MKK1; MKK1, 10 μM, read-out: Mean Remaining Enzyme Activity (%)): 96%; remaining activity at 10 µM (PKCα; PKCα, 10 μM, read-out: Mean Remaining Enzyme Activity (%)): 98%; remaining activity at 10 µM (PRAK; PRAK, 10 μM, read-out: Mean Remaining Enzyme Activity (%)): 115%; remaining activity at 10 µM (CHK2; CHK2, 10 μM, read-out: Mean Remaining Enzyme Activity (%)): 36%; remaining activity at 10 µM (DYRK1A; DYRK1A, 10 μM, read-out: Mean Remaining Enzyme Activity (%)): 17%; IC50 (DYRK1A; kinase screen): 2.3 µM; remaining activity at 10 µM (HIPK2; HIPK2, 10 μM, read-out: Mean Remaining Enzyme Activity (%)): 88%
CC[C@H](CO)Nc1cc(NCc2ccccc2)n2ncc(C(C)C)c2n1 [ICEC0067]	44%	93%	94%	70%	27%	70%	–
C=C[C@H](CO)Nc1cc(NCc2ccccc2)n2ncc(C(C)C)c2n1 [ICEC0065]	107%	101%	86%	81%	30%	70%	–
CC(C)c1cnn2c(NCc3ccccc3)cc(N[C@@H](CO)[C@H](O)CO)nc12 [ICEC0318, (3S)-3-(7-(Benzylamino)-3-isopropylpyrazolo[1,5-a]pyrimidin-5-ylamino)butane-1,2,4-triol]	65%	96%	97%	61%	15%	73%	–
